Assay results from ChEMBL document CHEMBL1201862, “PubChem BioAssay data set” (2004).
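Results reflect a 48-hour exposure of cells in 96-well plates to compound at five concentrations. Here, GI50 denotes the concentration required for 50% inhibition of growth.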 Active and inactive are the calls of the source. Rule as the data show it: active = GI50 up to about 1.1 µM and inactive = higher.

How the values were obtained:
Experiment in all cases: DTP human tumour cell line panel, 48 h
EKVX = tested on: EKVX
SK-OV-3 = tested on: SK-OV-3
SF-539 = tested on: SF-539
RPMI-8226 = tested on: RPMI-8226
MDA-N = tested on: MDA-N
A549 = tested on: A549
HT-29 = tested on: HT-29
UACC-62 = tested on: UACC-62
786-0 = tested on: 786-0
HCT-116 = tested on: HCT-116
SN12C = tested on: SN12C
OVCAR-8 = tested on: OVCAR-8
HOP-92 = tested on: HOP-92
SK-MEL-2 = tested on: SK-MEL-2
NCI-H23 = tested on: NCI-H23
SNB-19 = tested on: SNB-19
LOX IMVI = tested on: LOX IMVI
DU-145 = tested on: DU-145
PC-3 = tested on: PC-3

Row | Compound | GI50 (EKVX) | GI50 (SK-OV-3) | GI50 (SF-539) | GI50 (RPMI-8226) | GI50 (MDA-N) | GI50 (A549) | GI50 (HT-29) | GI50 (UACC-62) | GI50 (786-0) | GI50 (HCT-116) | GI50 (SN12C) | GI50 (OVCAR-8) | GI50 (HOP-92) | GI50 (SK-MEL-2) | GI50 (NCI-H23) | GI50 (SNB-19) | GI50 (LOX IMVI) | GI50 (DU-145) | GI50 (PC-3)
1 | CCOC(=O)C(NC(=O)CC)(Nc1ccc(S(=O)(=O)Nc2ccc(OC)nn2)cc1)C(F)(F)F (centres undefined) | > 100 µM (inactive) | > 100 µM (inactive) | > 100 µM (inactive) | > 100 µM (inactive) | > 100 µM (inactive) | > 100 µM (inactive) | > 100 µM (inactive) | > 100 µM (inactive) | > 100 µM (inactive) | > 100 µM (inactive) | > 100 µM (inactive) | > 100 µM (inactive) | > 100 µM (inactive) | > 100 µM (inactive) | > 100 µM (inactive) | > 100 µM (inactive) | > 100 µM (inactive) | > 100 µM (inactive) | > 100 µM (inactive)
2 | CC1CCCCN1CC(=O)c1ccc2c(c1)Sc1ccccc1O2 (centres undefined) | 13.3 µM (inactive) | 16.4 µM (inactive) | 16.9 µM (inactive) | > 100 µM (inactive) | 15.2 µM (inactive) | 14.6 µM (inactive) | 8.61 µM (inactive) | 13.3 µM (inactive) | 14.1 µM (inactive) | 14.2 µM (inactive) | 18.7 µM (inactive) | 15 µM (inactive) | 13.2 µM (inactive) | 17.9 µM (inactive) | 15.2 µM (inactive) | 17.9 µM (inactive) | 9.93 µM (inactive) | 26.7 µM (inactive) | 11.8 µM (inactive)
3 | CC(=O)OC(Cc1ccc2ccccc2n1)(C(F)(F)F)C(F)(F)F | 4.62 µM (inactive) | 14.3 µM (inactive) | 2.32 µM (inactive) | 0.0272 µM (active) | 1.17 µM (inactive) | 9.53 µM (inactive) | 1.27 µM (inactive) | 1.32 µM (inactive) | 1.52 µM (inactive) | 1.31 µM (inactive) | 1.27 µM (inactive) | 1.69 µM (inactive) | 0.142 µM (active) | 1.36 µM (inactive) | 1.58 µM (inactive) | 3.76 µM (inactive) | 0.267 µM (active) | 3.31 µM (inactive) | 2.09 µM (inactive)
4 | O=c1[nH]c(=O)n(C2CC(O)C(CO)O2)c2nc3ccc4cc5ccccc5cc4c3nc12 (centres undefined) | > 100 µM (inactive) | 53.6 µM (inactive) | > 100 µM (inactive) | > 100 µM (inactive) | > 100 µM (inactive) | > 100 µM (inactive) | > 100 µM (inactive) | > 100 µM (inactive) | > 100 µM (inactive) | > 100 µM (inactive) | > 100 µM (inactive) | > 100 µM (inactive) | > 100 µM (inactive) | > 100 µM (inactive) | > 100 µM (inactive) | > 100 µM (inactive) | 14.8 µM (inactive) | > 100 µM (inactive) | > 100 µM (inactive)
5 | CCCCCCOc1ccc(NC2=C(Cl)C(=O)c3c(O)ccc(O)c3C2=O)cc1 | > 10 µM (inactive) | > 10 µM (inactive) | 2.4 µM (inactive) | 1.4 µM (inactive) | 2.99 µM (inactive) | 3.27 µM (inactive) | 2.11 µM (inactive) | 2.58 µM (inactive) | 0.611 µM (active) | 1.6 µM (inactive) | 1.86 µM (inactive) | 2.09 µM (inactive) | 2.72 µM (inactive) | 2.96 µM (inactive) | 2.4 µM (inactive) | 3.15 µM (inactive) | 1.67 µM (inactive) | 5.9 µM (inactive) | 3.09 µM (inactive)
6 | Cc1ccccc1NC(=O)CC(=O)NNC(Sc1ccccc1)c1cc(/N=N/c2ccc(Br)cc2)ccc1O (centres undefined) | 5.02 µM (inactive) | 5.26 µM (inactive) | 1.37 µM (inactive) | 1.7 µM (inactive) | 3.14 µM (inactive) | 3.42 µM (inactive) | 9.48 µM (inactive) | 1 µM (active) | 0.551 µM (active) | 0.308 µM (active) | 2.49 µM (inactive) | 0.552 µM (active) | 5.97 µM (inactive) | 5.93 µM (inactive) | 3.08 µM (inactive) | 9.48 µM (inactive) | 1.49 µM (inactive) | 2.21 µM (inactive) | 0.877 µM (active)
7 | CN1CCN(CCCNN)CC1 | > 100 µM (inactive) | > 100 µM (inactive) | > 100 µM (inactive) | 86.7 µM (inactive) | > 100 µM (inactive) | > 100 µM (inactive) | > 100 µM (inactive) | > 100 µM (inactive) | > 100 µM (inactive) | > 100 µM (inactive) | > 100 µM (inactive) | > 100 µM (inactive) | > 100 µM (inactive) | > 100 µM (inactive) | > 100 µM (inactive) | > 100 µM (inactive) | > 100 µM (inactive) | > 100 µM (inactive) | > 100 µM (inactive)
8 | Cc1ccc(S(=O)(=O)N2CCN(CCN(C)CCN3CCN(S(=O)(=O)c4ccc(C)cc4)CC3)CC2)cc1 | 22.5 µM (inactive) | 18.4 µM (inactive) | 16.4 µM (inactive) | 16.6 µM (inactive) | 18.9 µM (inactive) | 23.3 µM (inactive) | 14.5 µM (inactive) | 17.9 µM (inactive) | 19.4 µM (inactive) | 17 µM (inactive) | 18.5 µM (inactive) | 17.4 µM (inactive) | 17.7 µM (inactive) | 18.8 µM (inactive) | 22.6 µM (inactive) | 26.2 µM (inactive) | 17.2 µM (inactive) | 16 µM (inactive) | 20.7 µM (inactive)
9 | Clc1ccc2oc(CCc3ccccc3)nc2c1 | 32.5 µM (inactive) | 47.2 µM (inactive) | > 100 µM (inactive) | 46.1 µM (inactive) | 50.1 µM (inactive) | 36.6 µM (inactive) | 33.4 µM (inactive) | > 100 µM (inactive) | 53.8 µM (inactive) | 36.2 µM (inactive) | 66.1 µM (inactive) | 78.9 µM (inactive) | 49.4 µM (inactive) | 30.6 µM (inactive) | 45.8 µM (inactive) | 91.6 µM (inactive) | > 100 µM (inactive) | 48.1 µM (inactive) | 48.6 µM (inactive)
10 | Cc1c(O)c(C)c2c(C)cn(C(=O)C(C)(C)C)c2c1C | 20 µM (inactive) | 22.2 µM (inactive) | 16.4 µM (inactive) | 29.6 µM (inactive) | 21.2 µM (inactive) | 22.9 µM (inactive) | 17.3 µM (inactive) | 14.7 µM (inactive) | 15.2 µM (inactive) | 21 µM (inactive) | 17.9 µM (inactive) | 20.1 µM (inactive) | 0.0206 µM (active) | 28.2 µM (inactive) | 15.5 µM (inactive) | 24.8 µM (inactive) | 35 µM (inactive) | 20.8 µM (inactive) | 21.2 µM (inactive)
11 | O=C1/C(=C/c2ccc(O)cc2)CCc2ccc([N+](=O)[O-])cc21 | > 89.5 µM (inactive) | > 84.7 µM (inactive) | > 90.6 µM (inactive) | 2.07 µM (inactive) | > 100 µM (inactive) | 45 µM (inactive) | > 100 µM (inactive) | > 74.3 µM (inactive) | > 80.5 µM (inactive) | 75.5 µM (inactive) | > 100 µM (inactive) | > 100 µM (inactive) | 29.1 µM (inactive) | 66.5 µM (inactive) | 36.1 µM (inactive) | 39.1 µM (inactive) | > 100 µM (inactive) | 55.3 µM (inactive) | > 100 µM (inactive)
